Source: ChEMBL document CHEMBL1201862, “PubChem BioAssay data set” (2004)
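1) Cells in 96-well plates. 2) Compound, 48 h, 5 concentrations. 3) Linear interpolation between surrounding doses. 4) Unreached endpoint = highest concentration. At the GI50, growth is halved.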 Active and inactive are the calls of the source. Rule as the data show it: active = GI50 up to about 1.1 µM and inactive = higher. Square brackets hold non-standard residues; d marks the D form. Peptide text beside a SMILES is read from it. pGlu = O=C1CC[CH](C(=O)O)N1

What was measured:
Assay in all cases: DTP human tumour cell line panel, 48 h
BT-549 = test system: BT-549
CAKI-1 = test system: CAKI-1
COLO 205 = test system: COLO 205
HCT-15 = test system: HCT-15
HL-60 = test system: HL-60
HOP-92 = test system: HOP-92
LOX IMVI = test system: LOX IMVI
MDA-N = test system: MDA-N
MOLT-4 = test system: MOLT-4
NCI-H23 = test system: NCI-H23
OVCAR-5 = test system: OVCAR-5
PC-3 = test system: PC-3
SF-268 = test system: SF-268
SF-539 = test system: SF-539
SK-MEL-28 = test system: SK-MEL-28
SK-MEL-2 = test system: SK-MEL-2
SK-MEL-5 = test system: SK-MEL-5
SNB-75 = test system: SNB-75
UACC-257 = test system: UACC-257
MDA-MB-231 = test system: MDA-MB-231

| SMILES | GI50 (BT-549) | GI50 (CAKI-1) | GI50 (COLO 205) | GI50 (HCT-15) | GI50 (HL-60) | GI50 (HOP-92) | GI50 (LOX IMVI) | GI50 (MDA-N) | GI50 (MOLT-4) | GI50 (NCI-H23) | GI50 (OVCAR-5) | GI50 (PC-3) | GI50 (SF-268) | GI50 (SF-539) | GI50 (SK-MEL-28) | GI50 (SK-MEL-2) | GI50 (SK-MEL-5) | GI50 (SNB-75) | GI50 (UACC-257) | GI50 (MDA-MB-231) |
| --- | --- | --- | --- | --- | --- | --- | --- | --- | --- | --- | --- | --- | --- | --- | --- | --- | --- | --- | --- | --- |
| COc1cc2cc(c1Cl)N(C)C(=O)C[C@H](OC(=O)[C@H](C)N(C)C(C)=O)[C@]1(C)O[C@H]1[C@H](C)[C@@H]1C[C@@](O)(NC(=O)O1)[C@H](OC)/C=C/C=C(/C)C2 | 0.334 µM (active) | 0.0531 µM (active) | 0.02 µM (active) | 0.0292 µM | 0.0125 µM (active) | 0.0118 µM (active) | 0.0153 µM (active) | 0.0131 µM (active) | 0.0229 µM (active) | 0.0201 µM (active) | 6.98 µM (inactive) | 0.000505 µM (active) | 0.0176 µM (active) | 0.015 µM (active) | 0.0327 µM (active) | 0.0491 µM (active) | 0.0135 µM (active) | 0.0174 µM (active) | 0.0373 µM (active) |  |
| CC1=Nc2nc3ccccc3n2C(C)(C)C1 | > 100 µM (inactive) | > 100 µM (inactive) | > 100 µM (inactive) | > 100 µM |  | > 100 µM (inactive) | > 100 µM (inactive) | > 100 µM (inactive) | > 100 µM (inactive) | > 100 µM (inactive) | > 100 µM (inactive) | > 100 µM (inactive) | > 100 µM (inactive) | > 100 µM (inactive) |  | > 100 µM (inactive) | > 100 µM (inactive) | > 100 µM (inactive) | > 100 µM (inactive) | > 100 µM (inactive) |
| CC(NC(=O)C(Cc1c[nH]cn1)NC(=O)C1CCC(=O)N1)C(N)=O (stereo not drawn) ([pGlu]-His-Ala-NH2; configuration not given here) | > 100 µM (inactive) |  | > 100 µM (inactive) |  | > 100 µM (inactive) | > 100 µM (inactive) | > 100 µM (inactive) | > 100 µM (inactive) | > 100 µM (inactive) | > 100 µM (inactive) | > 100 µM (inactive) | > 100 µM (inactive) | > 100 µM (inactive) |  | > 100 µM (inactive) |  | > 100 µM (inactive) | > 100 µM (inactive) |  | > 100 µM (inactive) |
| CC(C)=CCOC(=O)C(C)=[N+]=[N-] | > 100 µM (inactive) | > 100 µM (inactive) | > 100 µM (inactive) | > 100 µM | 42.6 µM (inactive) |  | > 100 µM (inactive) | > 100 µM (inactive) | 59 µM (inactive) | > 100 µM (inactive) | > 100 µM (inactive) | > 100 µM (inactive) | > 100 µM (inactive) |  | > 100 µM (inactive) |  | > 100 µM (inactive) | > 100 µM (inactive) | > 100 µM (inactive) | > 100 µM (inactive) |
| Oc1c(CN2CCOCC2)ccc2cccnc12 | 1.51 µM (inactive) | 5.16 µM (inactive) | > 10 µM (inactive) | 4.59 µM |  | > 10 µM (inactive) | > 10 µM (inactive) | > 10 µM (inactive) | 4.11 µM (inactive) | > 10 µM (inactive) | > 10 µM (inactive) | > 10 µM (inactive) | > 10 µM (inactive) | > 10 µM (inactive) | > 10 µM (inactive) | > 10 µM (inactive) | > 10 µM (inactive) | > 10 µM (inactive) | > 10 µM (inactive) | > 10 µM (inactive) |
| CN(C)CCN(C)c1ccc2c(=O)n(CCN(C)C)c(=O)n3c4ccccc4c(=O)c1c23 | 3.3 µM (inactive) | < 0.026 µM (active) | 0.647 µM (active) | 0.179 µM | 0.0627 µM (active) | 0.145 µM (active) | 0.35 µM (active) | 0.859 µM (active) | 0.0167 µM (active) | 0.54 µM (active) | 1.87 µM (inactive) | 0.973 µM (active) |  | 0.324 µM (active) | 2.12 µM (inactive) | 2.87 µM (inactive) | 0.48 µM (active) | 0.316 µM (active) | 1.56 µM (inactive) |  |
| Nc1nc(Nc2ccccc2)sc1C(=O)c1c[nH]c2ccccc12 | 14.8 µM (inactive) |  | 4.2 µM (inactive) | 3.95 µM | 19.1 µM (inactive) | 16.4 µM (inactive) | 13.5 µM (inactive) | 12.4 µM (inactive) | 2.08 µM (inactive) | 17.5 µM (inactive) | 11.9 µM (inactive) | 11.6 µM (inactive) | 15.1 µM (inactive) | 12.4 µM (inactive) | 11.7 µM (inactive) | 15.1 µM (inactive) | 11.8 µM (inactive) |  | 10.8 µM (inactive) | 17.2 µM (inactive) |
| O=C1C(Br)=C(Br)C(=O)c2c(O)ccc(O)c21 | 13.9 µM (inactive) |  | 1.09 µM (active) | 2.19 µM | 0.168 µM (active) | 2.11 µM (inactive) |  | 2.49 µM (inactive) | 0.0733 µM (active) | 4.67 µM (inactive) | 17 µM (inactive) | 15.4 µM (inactive) | 16.9 µM (inactive) | 15.9 µM (inactive) | 2.06 µM (inactive) | 26.2 µM (inactive) | 9.14 µM (inactive) | 18.8 µM (inactive) | 5.43 µM (inactive) | 2.64 µM (inactive) |
| O=C1CSC(c2c[nH]c3ccccc23)N1c1cccc([N+](=O)[O-])c1 (stereo not drawn) | > 100 µM (inactive) |  | > 100 µM (inactive) | 42.9 µM | > 100 µM (inactive) | 32.6 µM (inactive) | 93.5 µM (inactive) | 34.8 µM (inactive) | > 100 µM (inactive) | > 100 µM (inactive) | > 100 µM (inactive) | 36.1 µM (inactive) | > 100 µM (inactive) | 82 µM (inactive) | > 100 µM (inactive) |  | 84.3 µM (inactive) | 43.7 µM (inactive) | > 100 µM (inactive) | 56.2 µM (inactive) |
| O=C1CSCc2sccc21 | > 100 µM (inactive) | > 100 µM (inactive) | > 100 µM (inactive) | > 100 µM | > 100 µM (inactive) |  |  | > 100 µM (inactive) | > 100 µM (inactive) | > 100 µM (inactive) | > 100 µM (inactive) | > 100 µM (inactive) | > 100 µM (inactive) | > 100 µM (inactive) | > 100 µM (inactive) | > 100 µM (inactive) | > 100 µM (inactive) | 52.8 µM (inactive) | > 100 µM (inactive) | > 100 µM (inactive) |
| COC(=O)C(NC(=O)CNC(=O)CSc1nnc(COc2ccc(Cl)cc2)n1-c1ccccc1)C(C)C (stereo not drawn) | 18.5 µM (inactive) | 14.7 µM (inactive) | 19.5 µM (inactive) | 21.2 µM |  | 20.8 µM (inactive) | 19.6 µM (inactive) | 21.6 µM (inactive) | 22.3 µM (inactive) | 20 µM (inactive) | 18.2 µM (inactive) | 17.9 µM (inactive) | 21.3 µM (inactive) | 17.1 µM (inactive) | 16.7 µM (inactive) | 20.8 µM (inactive) | 16.2 µM (inactive) | 21.3 µM (inactive) | 18 µM (inactive) | 18.5 µM (inactive) |
| Cc1cc(S(=O)(=O)Nc2nc(N)n[nH]2)c(Cl)cc1Cl | > 10 µM (inactive) | > 10 µM (inactive) | > 10 µM (inactive) | > 10 µM | > 10 µM (inactive) |  | > 10 µM (inactive) | > 10 µM (inactive) | > 10 µM (inactive) | > 10 µM (inactive) | > 10 µM (inactive) | > 10 µM (inactive) | > 10 µM (inactive) | > 10 µM (inactive) | > 10 µM (inactive) | > 10 µM (inactive) | > 10 µM (inactive) | > 10 µM (inactive) | > 10 µM (inactive) | > 10 µM (inactive) |
| CN(C)C=C1C(=O)c2c(Br)sc(Br)c2C1=O | 20.8 µM (inactive) | 18.1 µM (inactive) | 18.5 µM (inactive) | 18.1 µM | 16.3 µM (inactive) | 16.6 µM (inactive) | 20 µM (inactive) | 19.7 µM (inactive) | 32.7 µM (inactive) | 15.1 µM (inactive) | 28.1 µM (inactive) | 20.7 µM (inactive) | 15.7 µM (inactive) | 18.2 µM (inactive) | 15.3 µM (inactive) | 14.1 µM (inactive) | 16.3 µM (inactive) | 17 µM (inactive) | 16.3 µM (inactive) |  |
| C[C@H](CCC1=NCCN1)[C@H]1CC[C@H]2[C@@H]3CC[C@@H]4C[C@H](O)CC[C@]4(C)[C@H]3CC[C@]12C | 14.4 µM (inactive) | 3.51 µM (inactive) | 1.95 µM (inactive) | 18.5 µM |  | 3.3 µM (inactive) | 1.95 µM (inactive) | 10.1 µM (inactive) | 2.7 µM (inactive) | 15 µM (inactive) | 10.7 µM (inactive) | 4.94 µM (inactive) | 10.6 µM (inactive) | 10.3 µM (inactive) | 2.08 µM (inactive) | 4.49 µM (inactive) | 1.63 µM (inactive) | 5.07 µM (inactive) | 2.55 µM (inactive) | 5.78 µM (inactive) |
| CC(C)(CN1CCCCC1)C(/C=C/c1ccc(Cl)c(Cl)c1)=N\NC(=O)N/N=C(/C=C/c1ccc(Cl)c(Cl)c1)C(C)(C)CN1CCCCC1 | > 10 µM (inactive) | 1.71 µM (inactive) | 1.64 µM (inactive) | 1.08 µM | 1.52 µM (inactive) |  | 1.12 µM (inactive) | 1.42 µM (inactive) | 2.62 µM (inactive) | 1.93 µM (inactive) | 1.59 µM (inactive) | > 10 µM (inactive) | 1.57 µM (inactive) | 1.77 µM (inactive) | 1.72 µM (inactive) | > 10 µM (inactive) | 1.99 µM (inactive) | 1.55 µM (inactive) | 1.63 µM (inactive) | 2.06 µM (inactive) |
